One compound from paper PMC5218480 (PLoS ONE, 2017) can be followed below.

The test has as its system MV-4-11 cells. Briefly: Gene expression microarray analysis (Affymetrix PrimeView) and GSEA. Format: cell-based, human. Further details: RFU PODN (11730768_x_at) / Fold change /veh PODN (11730768_x_at) / RFU LINC00158 (11744669_a_at) / Fold change /veh LINC00158 (11744669_a_at) / RFU DUSP10 (11751237_a_at) / Fold change /veh DUSP10 (11751237_a_at) / RFU ID3 (11757404_x_at) / Fold change /veh ID3 (11757404_x_at) / RFU PLEKHG5 (11737974_s_at) / Fold change /veh PLEKHG5 (11737974_s_at) / RFU LRRC4B (11730491_at) / Fold change /veh LRRC4B (11730491_at) / RFU GIMAP4 (11747438_a_at) / Fold change /veh GIMAP4 (11747438_a_at) / RFU KRT8 (11758183_x_at) / Fold change /veh KRT8 (11758183_x_at) / RFU CNN1 (11734310_a_at) / Fold change /veh CNN1 (11734310_a_at) / RFU VPS37D (11726825_at) / Fold change /veh VPS37D (11726825_at) / RFU C10orf10 (11716522_x_at) / Fold change /veh C10orf10 (11716522_x_at) / RFU KIR2DL2 /// KIR2DL4 /// KIR2DL5A /// KIR2DL5B /// KIR2DS1 /// KIR2DS2 /// KIR2DS3 /// KIR2DS4 /// KIR3DL3 /// KIR3DL3 /// KIR3DS1 (11738374_at) / Fold change /veh KIR2DL2 /// KIR2DL4 /// KIR2DL5A /// KIR2DL5B /// KIR2DS1 /// KIR2DS2 /// KIR2DS3 /// KIR2DS4 /// KIR3DL3 /// KIR3DL3 /// KIR3DS1 (11738374_at) / RFU C1QL1 (11718748_at) / Fold change /veh C1QL1 (11718748_at) / RFU TMPRSS4 (11747572_a_at) / Fold change /veh TMPRSS4 (11747572_a_at) / RFU HAMP (11756126_x_at) / Fold change /veh HAMP (11756126_x_at) / RFU RNFT2 (11725882_a_at) / Fold change /veh RNFT2 (11725882_a_at) / RFU NR4A2 (11747474_a_at) / Fold change /veh NR4A2 (11747474_a_at) / RFU ABCC12 (11746883_a_at) / Fold change /veh ABCC12 (11746883_a_at) / RFU TMEM136 (11760407_x_at) / Fold change /veh TMEM136 (11760407_x_at) / RFU CLDN22 /// WWC2 (11732394_at) / Fold change /veh CLDN22 /// WWC2 (11732394_at) / RFU HLA-DPB1 (11760878_x_at) / Fold change /veh HLA-DPB1 (11760878_x_at) / RFU SPINT1 (11716480_a_at) / Fold change /veh SPINT1 (11716480_a_at) / RFU GAP43 (11754022_s_at) / Fold change /veh GAP43 (11754022_s_at) / RFU A4GNT (11735810_at) / Fold change /veh A4GNT (11735810_at) / RFU PRB3 (11715151_x_at) / Fold change /veh PRB3 (11715151_x_at) / RFU TUBB4B (11761932_at) / Fold change /veh TUBB4B (11761932_at) / RFU CAPN14 (11732068_a_at) / Fold change /veh CAPN14 (11732068_a_at) / RFU TMCC2 (11721928_a_at) / Fold change /veh TMCC2 (11721928_a_at) / RFU IRGQ (11745062_a_at) / Fold change /veh IRGQ (11745062_a_at) / RFU FAM174B (11720279_a_at) / Fold change /veh FAM174B (11720279_a_at) / RFU TMPRSS4 (11748680_a_at) / Fold change /veh TMPRSS4 (11748680_a_at) / RFU FAM212B (11763350_a_at) / Fold change /veh FAM212B (11763350_a_at) / RFU PLEKHG5 (11743358_a_at) / Fold change /veh PLEKHG5 (11743358_a_at) / RFU ZSCAN30 (11745921_a_at) / Fold change /veh ZSCAN30 (11745921_a_at) / RFU CMKLR1 (11741424_a_at) / Fold change /veh CMKLR1 (11741424_a_at) / RFU LOC101060620 /// MAPK8IP1 (11723275_at) / Fold change /veh LOC101060620 /// MAPK8IP1 (11723275_at) / RFU SPTSSB (11747773_x_at) / Fold change /veh SPTSSB (11747773_x_at) / RFU PRSS12 (11739890_at) / Fold change /veh PRSS12 (11739890_at) / RFU BIN1 (11741810_x_at) / Fold change /veh BIN1 (11741810_x_at) / RFU WNT11 (11732464_a_at) / Fold change /veh WNT11 (11732464_a_at) / RFU C10orf10 (11716521_a_at) / Fold change /veh C10orf10 (11716521_a_at) / RFU C5orf56 (11738089_at) / Fold change /veh C5orf56 (11738089_at) / RFU CYB561 (11721691_x_at) / Fold change /veh CYB561 (11721691_x_at) / RFU ANKRD19P (11752326_a_at) / Fold change /veh ANKRD19P (11752326_a_at) / RFU OR2T12 /// OR2T33 /// OR2T8 (11738714_s_at) / Fold change /veh OR2T12 /// OR2T33 /// OR2T8 (11738714_s_at) / RFU VCAN (11748164_a_at) / Fold change /veh VCAN (11748164_a_at) / RFU JSRP1 (11732532_at) / Fold change /veh JSRP1 (11732532_at) / RFU KRTAP10-11 (11738290_x_at) / Fold change /veh KRTAP10-11 (11738290_x_at) / RFU MYO3A (11730013_a_at) / Fold change /veh MYO3A (11730013_a_at) / RFU EBF3 (11725865_a_at) / Fold change /veh EBF3 (11725865_a_at) / RFU CAMK2N1 (11719241_x_at) / Fold change /veh CAMK2N1 (11719241_x_at) / RFU C5orf56 (11738088_a_at) / Fold change /veh C5orf56 (11738088_a_at) / RFU OLFML3 (11715873_a_at) / Fold change /veh OLFML3 (11715873_a_at) / RFU LOC100653217 /// NTM (11731650_a_at) / Fold change /veh LOC100653217 /// NTM (11731650_a_at) / RFU MAPK11 (11762145_a_at) / Fold change /veh MAPK11 (11762145_a_at) / RFU FIZ1 (11724087_x_at) / Fold change /veh FIZ1 (11724087_x_at) / RFU OASL (11726364_x_at) / Fold change /veh OASL (11726364_x_at) / RFU SOX15 (11748057_x_at) / Fold change /veh SOX15 (11748057_x_at) / RFU CD79A (11719716_a_at) / Fold change /veh CD79A (11719716_a_at) / RFU HIST1H1D (11736915_at) / Fold change /veh HIST1H1D (11736915_at) / RFU CASKIN2 (11723855_a_at) / Fold change /veh CASKIN2 (11723855_a_at) / RFU LOC730098 (11760151_x_at) / Fold change /veh LOC730098 (11760151_x_at) / RFU OR4N2 (11742367_at) / Fold change /veh OR4N2 (11742367_at) / RFU PRRT2 (11749266_a_at) / Fold change /veh PRRT2 (11749266_a_at) / RFU SNX32 (11753110_a_at) / Fold change /veh SNX32 (11753110_a_at) / RFU CDHR5 (11726645_a_at) / Fold change /veh CDHR5 (11726645_a_at) / RFU RCAN1 (11760418_a_at) / Fold change /veh RCAN1 (11760418_a_at) / RFU FAM167A (11723789_a_at) / Fold change /veh FAM167A (11723789_a_at) / RFU FAM26E (11764081_at) / Fold change /veh FAM26E (11764081_at) / RFU ISYNA1 (11749810_s_at) / Fold change /veh ISYNA1 (11749810_s_at) / RFU ACY1 (11761880_at) / Fold change /veh ACY1 (11761880_at) / RFU 11764098_at / Fold change /veh 11764098_at / RFU SAMD14 (11745864_x_at) / Fold change /veh SAMD14 (11745864_x_at) / RFU NPB (11741838_a_at) / Fold change /veh NPB (11741838_a_at) / RFU TMPRSS6 (11731388_a_at) / Fold change /veh TMPRSS6 (11731388_a_at) / RFU KRTAP10-2 (11738614_at) / Fold change /veh KRTAP10-2 (11738614_at) / RFU ARHGAP8 /// PRR5-ARHGAP8 (11727945_x_at) / Fold change /veh ARHGAP8 /// PRR5-ARHGAP8 (11727945_x_at) / RFU KRTAP5-7 /// NADSYN1 (11734609_at) / Fold change /veh KRTAP5-7 /// NADSYN1 (11734609_at) / RFU RASL12 (11751679_a_at) / Fold change /veh RASL12 (11751679_a_at) / RFU CDKN2B (11736163_a_at) / Fold change /veh CDKN2B (11736163_a_at) / RFU PRF1 (11729649_at) / Fold change /veh PRF1 (11729649_at) / RFU, ZNF638 /// ZNF638-IT1 / Fold change vs veh, ZNF638 /// ZNF638-IT1 / RFU, PANK3 / Fold change vs veh, PANK3 / RFU, SH3YL1 / Fold change vs veh, SH3YL1 / RFU, ZEB2 / Fold change vs veh, ZEB2 / RFU, NRIP1 / Fold change vs veh, NRIP1 / RFU, PTTG1IP / Fold change vs veh, PTTG1IP / RFU, CAPN2 / Fold change vs veh, CAPN2 / RFU, MED14 / Fold change vs veh, MED14 / RFU, SNORA58 / Fold change vs veh, SNORA58 / RFU, C1orf63 / Fold change vs veh, C1orf63 / RFU, LRRFIP1 / Fold change vs veh, LRRFIP1 / RFU, NDUFAF7 / Fold change vs veh, NDUFAF7 / RFU, SLC12A2 / Fold change vs veh, SLC12A2 / RFU, IBTK / Fold change vs veh, IBTK / RFU, ESF1 / Fold change vs veh, ESF1 / Fold change vs veh, TMEM50B / RFU, TAOK1 / Fold change vs veh, TAOK1 / RFU, ACBD3 / Fold change vs veh, ACBD3 / RFU, TMA16 / Fold change vs veh, TMA16 / RFU, RWDD3 / Fold change vs veh, RWDD3 / RFU, BCAT1 / Fold change vs veh, BCAT1 / RFU, EDEM3 / Fold change vs veh, EDEM3 / RFU, TMEM33 / Fold change vs veh, TMEM33 / RFU, WDR75 / Fold change vs veh, WDR75 / RFU, AHCTF1 / Fold change vs veh, AHCTF1 / RFU, TFRC / Fold change vs veh, TFRC / RFU, ZDHHC17 / Fold change vs veh, ZDHHC17 / RFU, NOM1 / Fold change vs veh, NOM1 / RFU, ARL8B / Fold change vs veh, ARL8B / RFU, ZBTB11 / Fold change vs veh, ZBTB11 / RFU, TAMM41 / Fold change vs veh, TAMM41 / RFU, KIAA1704 /// LOC100996395 / Fold change vs veh, KIAA1704 /// LOC100996395 / RFU, ING1 / Fold change vs veh, ING1 / RFU, TRMT61B / Fold change vs veh, TRMT61B / RFU, FUBP3 / Fold change vs veh, FUBP3 / RFU, TP53 / Fold change vs veh, TP53 / RFU, TNKS2 / Fold change vs veh, TNKS2 / RFU, ZFP14 / Fold change vs veh, ZFP14 / RFU, ACTR2 / Fold change vs veh, ACTR2 / RFU, PPP3R1 / Fold change vs veh, PPP3R1 / RFU, PIK3R1 / Fold change vs veh, PIK3R1 / RFU, HNRNPA1 / Fold change vs veh, HNRNPA1 / RFU, RNF170 / Fold change vs veh, RNF170 / RFU, ZNF28 / Fold change vs veh, ZNF28 / RFU, RNGTT / Fold change vs veh, RNGTT / RFU, OGT / Fold change vs veh, OGT / RFU, BRD1 / Fold change vs veh, BRD1 / RFU, MARS / Fold change vs veh, MARS / RFU, ZNF655 / Fold change vs veh, ZNF655 / RFU, FAHD1 / Fold change vs veh, FAHD1 / RFU, BDP1 / Fold change vs veh, BDP1 / RFU, LRRCC1 / Fold change vs veh, LRRCC1 / RFU, ARID1A / Fold change vs veh, ARID1A / RFU, ZNF146 / Fold change vs veh, ZNF146 / RFU, ZNF330 / Fold change vs veh, ZNF330 / RFU, GPN3 / Fold change vs veh, GPN3 / RFU, C9orf123 / Fold change vs veh, C9orf123 / RFU, N4BP2L2 / Fold change vs veh, N4BP2L2 / RFU, ARFIP1 / Fold change vs veh, ARFIP1 / RFU, FAM179B / Fold change vs veh, FAM179B / RFU, BCL10 / Fold change vs veh, BCL10 / RFU, UHRF1BP1L / Fold change vs veh, UHRF1BP1L / RFU, BET1 / Fold change vs veh, BET1 / RFU, CNOT2 / Fold change vs veh, CNOT2 / RFU, ZNF268 / Fold change vs veh, ZNF268 / Fold change vs veh, ZNF507 / RFU, DGCR2 / Fold change vs veh, DGCR2 / RFU, WDSUB1 / Fold change vs veh, WDSUB1 / Fold change vs veh, HSP90B1 /// MIR3652 / RFU, ADSS / Fold change vs veh, ADSS / RFU, GK / Fold change vs veh, GK / RFU, ZNF148 / Fold change vs veh, ZNF148 / RFU, TAF9 / Fold change vs veh, TAF9 / RFU, SLC1A5 / Fold change vs veh, SLC1A5 / RFU, SLMO2 / Fold change vs veh, SLMO2 / RFU, ABCC4 / Fold change vs veh, ABCC4 / RFU, LOC101060439 /// RAP1B / Fold change vs veh, LOC101060439 /// RAP1B / RFU, RFX7 / Fold change vs veh, RFX7 / RFU, GTPBP10 / Fold change vs veh, GTPBP10 / RFU, CNEP1R1 / Fold change vs veh, CNEP1R1 / RFU, BIVM-ERCC5 /// ERCC5 / Fold change vs veh, BIVM-ERCC5 /// ERCC5 / RFU, ILF3 / Fold change vs veh, ILF3 / RFU 11762660_at / Fold change /veh 11762660_at / RFU VCAN (11757783_s_at) / Fold change /veh VCAN (11757783_s_at) / RFU DDX43 (11728927_at) / Fold change /veh DDX43 (11728927_at) / RFU KRT8 (11758188_x_at) / Fold change /veh KRT8 (11758188_x_at) / RFU NKD1 (11759106_at) / Fold change /veh NKD1 (11759106_at) / RFU SRD5A1 (11742802_a_at) / Fold change /veh SRD5A1 (11742802_a_at) / RFU TPSAB1 /// TPSB2 (11721975_s_at) / Fold change /veh TPSAB1 /// TPSB2 (11721975_s_at) / RFU GSTM3 (11746129_a_at) / Fold change /veh GSTM3 (11746129_a_at) / RFU IL23R (11737362_x_at) / Fold change /veh IL23R (11737362_x_at) / RFU TMEM51 (11727254_a_at) / Fold change /veh TMEM51 (11727254_a_at) / RFU PIWIL2 (11732686_x_at) / Fold change /veh PIWIL2 (11732686_x_at) / RFU ORM1 (11744905_x_at) / Fold change /veh ORM1 (11744905_x_at) / RFU CCDC152 (11743942_at) / Fold change /veh CCDC152 (11743942_at) / RFU ECM1 (11717891_a_at) / Fold change /veh ECM1 (11717891_a_at) / RFU IL23R (11748794_a_at) / Fold change /veh IL23R (11748794_a_at) / RFU TNFAIP8L3 (11732012_x_at) / Fold change /veh TNFAIP8L3 (11732012_x_at) / RFU MBOAT4 (11741988_at) / Fold change /veh MBOAT4 (11741988_at) / RFU 11764193_at / Fold change /veh 11764193_at / RFU TMEM53 (11763286_at) / Fold change /veh TMEM53 (11763286_at) / RFU MAGEB2 (11727129_at) / Fold change /veh MAGEB2 (11727129_at) / RFU TMEM200A (11744735_a_at) / Fold change /veh TMEM200A (11744735_a_at) / RFU CCDC152 (11751479_a_at) / Fold change /veh CCDC152 (11751479_a_at) / RFU FAM211A (11726209_a_at) / Fold change /veh FAM211A (11726209_a_at) / RFU RGS16 (11746705_a_at) / Fold change /veh RGS16 (11746705_a_at) / RFU VCAN (11755009_s_at) / Fold change /veh VCAN (11755009_s_at) / RFU RHOB (11743442_s_at) / Fold change /veh RHOB (11743442_s_at) / RFU RGS16 (11720943_a_at) / Fold change /veh RGS16 (11720943_a_at) / RFU RGS16 (11720944_at) / Fold change /veh RGS16 (11720944_at) / RFU, VPS4B / Fold change vs veh, VPS4B / RFU, CREB1 / Fold change vs veh, CREB1 / RFU, DNAJC13 / Fold change vs veh, DNAJC13 / RFU, GNAQ / Fold change vs veh, GNAQ / RFU, CDK5R1 / Fold change vs veh, CDK5R1 / RFU, ZRANB3 / Fold change vs veh, ZRANB3 / RFU, CUL4A / Fold change vs veh, CUL4A / RFU, CCNY / Fold change vs veh, CCNY / RFU, UFL1 / Fold change vs veh, UFL1 / RFU, COG3 / Fold change vs veh, COG3 / RFU, DIAPH2 / Fold change vs veh, DIAPH2 / RFU, SKA2 / Fold change vs veh, SKA2 / RFU, AFF3 / Fold change vs veh, AFF3 / RFU, LMF1 / Fold change vs veh, LMF1 / RFU, IPO11 / Fold change vs veh, IPO11 / RFU, DFFB / Fold change vs veh, DFFB / RFU, FOXP1 / Fold change vs veh, FOXP1 / RFU, CARD8 / Fold change vs veh, CARD8 / RFU, STRN3 / Fold change vs veh, STRN3 / RFU, ADK / Fold change vs veh, ADK / RFU, RASSF2 / Fold change vs veh, RASSF2 / RFU, WIPF1 / Fold change vs veh, WIPF1 / RFU, LARP1B / Fold change vs veh, LARP1B / RFU, RASA1 / Fold change vs veh, RASA1 / RFU, RB1 / Fold change vs veh, RB1 / RFU, PPFIA1 / Fold change vs veh, PPFIA1 / RFU, MAT2A / Fold change vs veh, MAT2A / RFU, CCT5 / Fold change vs veh, CCT5 / RFU, WDR92 / Fold change vs veh, WDR92 / RFU, CUX1 / Fold change vs veh, CUX1 / RFU, TTC7A / Fold change vs veh, TTC7A / RFU, TMEM135 / Fold change vs veh, TMEM135 / RFU, DEPTOR / Fold change vs veh, DEPTOR / RFU, CPM / Fold change vs veh, CPM / RFU, DNAJB6 / Fold change vs veh, DNAJB6 / RFU, CACNA2D3 / Fold change vs veh, CACNA2D3 / RFU, DTX4 / Fold change vs veh, DTX4 / RFU, TFCP2 / Fold change vs veh, TFCP2 / RFU, GMCL1 /// GMCL1P1 / Fold change vs veh, GMCL1 /// GMCL1P1 / RFU, AEBP2 / Fold change vs veh, AEBP2 / RFU, SNHG1 /// SNORD22 /// SNORD25 /// SNORD26 /// SNORD27 /// SNORD28 /// SNORD29 /// SNORD31 / Fold change vs veh, SNHG1 /// SNORD22 /// SNORD25 /// SNORD26 /// SNORD27 /// SNORD28 /// SNORD29 /// SNORD31 / Fold change (Aza/veh), C12orf56 (ProbeSet 11735607_a_at) / Fold change (ACY-1035/veh), C12orf56 (ProbeSet 11735607_a_at) / Fold change (Aza/veh), FGFR1OP (ProbeSet 11751329_s_at) / Fold change (ACY-1035/veh), FGFR1OP (ProbeSet 11751329_s_at) / Fold change (Aza/veh), VPS36 (ProbeSet 11739960_a_at) / Fold change (ACY-1035/veh), VPS36 (ProbeSet 11739960_a_at) / RFU SYPL1 (11715823_x_at) / Fold change /veh SYPL1 (11715823_x_at) / RFU IGFBP7 (11715501_s_at) / Fold change /veh IGFBP7 (11715501_s_at) / RFU REEP3 (11722064_at) / Fold change /veh REEP3 (11722064_at) / RFU IGLL1 (11728026_x_at) / Fold change /veh IGLL1 (11728026_x_at): dose or concentration left out as unconfirmed. Particulars: MV-4-11 cells, 48 hours.

As to `Nc1ccc(-c2cccs2)cc1NC(=O)c1ccc2c(c1)cc(C1CC1)n2CCN1CCOCC1` [ACY-1035], the “RFU KRT8 (11758183_x_at)” value is 18.67 RFU.
